Source: ChEMBL document CHEMBL1201862, “PubChem BioAssay data set” (2004)
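Briefly, cells in 96-well plates were exposed to five compound concentrations for 48 h, and endpoints were estimated by linear interpolation. GI50 is the concentration that inhibits growth by half.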 Active and inactive are the calls of the source. Cut-off read from the data, not from the text of the source: active = GI50 up to about 1.1 µM and inactive = higher.

Columns and labels:
Assay in all cases: NCI anticancer screen, dose series, 48 h
A549 = tested on: A549
SN12C = tested on: SN12C
HCT-15 = tested on: HCT-15
SW-620 = tested on: SW-620
SF-295 = tested on: SF-295
U-251 = tested on: U-251
NCI/ADR-RES = tested on: NCI/ADR-RES
OVCAR-4 = tested on: OVCAR-4
M14 = tested on: M14
SNB-75 = tested on: SNB-75
KM12 = tested on: KM12
A498 = tested on: A498
HOP-92 = tested on: HOP-92
OVCAR-5 = tested on: OVCAR-5
TK-10 = tested on: TK-10
OVCAR-8 = tested on: OVCAR-8
SK-MEL-5 = tested on: SK-MEL-5
RXF 393 = tested on: RXF 393
EKVX = tested on: EKVX
HT-29 = tested on: HT-29
NCI-H23 = tested on: NCI-H23
CAKI-1 = tested on: CAKI-1
SF-539 = tested on: SF-539
SNB-19 = tested on: SNB-19
MDA-MB-231 = tested on: MDA-MB-231
MDA-N = tested on: MDA-N
SK-MEL-28 = tested on: SK-MEL-28
OVCAR-3 = tested on: OVCAR-3
NCI-H226 = tested on: NCI-H226
HCT-116 = tested on: HCT-116
COLO 205 = tested on: COLO 205
ACHN = tested on: ACHN
IGROV-1 = tested on: IGROV-1
PC-3 = tested on: PC-3
UO-31 = tested on: UO-31
MDA-MB-435 = tested on: MDA-MB-435
DU-145 = tested on: DU-145
SF-268 = tested on: SF-268
RPMI-8226 = tested on: RPMI-8226
NCI-H460 = tested on: NCI-H460
MCF7 = tested on: MCF7
HL-60 = tested on: HL-60
SK-OV-3 = tested on: SK-OV-3
SK-MEL-2 = tested on: SK-MEL-2
Hs-578T = tested on: Hs-578T
MOLT-4 = tested on: MOLT-4
T47D = tested on: T47D
HCC 2998 = tested on: HCC 2998

SMILES	GI50 (A549)	GI50 (SN12C)	GI50 (SF-295)	GI50 (OVCAR-4)	GI50 (SNB-75)	GI50 (KM12)	GI50 (HOP-92)	GI50 (OVCAR-8)	GI50 (RXF 393)	GI50 (EKVX)	GI50 (HT-29)	GI50 (SNB-19)	GI50 (SK-MEL-28)	GI50 (COLO 205)	GI50 (IGROV-1)	GI50 (MDA-MB-435)	GI50 (DU-145)	GI50 (SF-268)	other results
CSc1ccc(C(=C=C=C(c2ccc(SC)s2)c2ccc(SC)s2)c2ccc(SC)s2)s1	> 10 µM (inactive)	> 10 µM (inactive)	> 10 µM (inactive)	> 10 µM (inactive)	> 10 µM (inactive)	> 10 µM (inactive)	> 10 µM (inactive)	> 10 µM (inactive)	> 10 µM (inactive)	> 10 µM (inactive)	> 10 µM (inactive)	> 10 µM (inactive)	> 10 µM (inactive)	> 10 µM (inactive)	> 10 µM (inactive)	> 10 µM (inactive)	> 10 µM (inactive)	> 10 µM (inactive)	GI50 (HCT-15): > 10 µM; GI50 (SW-620): > 10 µM (inactive); GI50 (U-251): > 10 µM (inactive); GI50 (NCI/ADR-RES): > 10 µM (inactive); GI50 (M14): > 10 µM (inactive); GI50 (A498): > 10 µM (inactive); GI50 (OVCAR-5): > 10 µM (inactive); GI50 (TK-10): > 10 µM (inactive); GI50 (SK-MEL-5): > 10 µM (inactive); GI50 (NCI-H23): > 10 µM (inactive); GI50 (CAKI-1): > 10 µM (inactive); GI50 (SF-539): > 10 µM (inactive); GI50 (MDA-MB-231): > 10 µM (inactive); GI50 (MDA-N): > 10 µM (inactive); GI50 (OVCAR-3): > 10 µM (inactive); GI50 (NCI-H226): > 10 µM (inactive); GI50 (HCT-116): > 10 µM (inactive); GI50 (ACHN): > 10 µM (inactive); GI50 (PC-3): > 10 µM (inactive); GI50 (UO-31): > 10 µM (inactive)
O=C(c1ccc(Cl)c(Cl)c1)N1CCN(C(=O)c2ccc(Cl)c(Cl)c2)C1=S	–	–	–	–	–	–	–	–	–	–	–	–	–	–	–	–	–	–	GI50 (RPMI-8226): 1.83 µM (inactive)
COc1cc2c(cc1OCCOS(C)(=O)=O)N=C[C@@H]1CCCN1C2=O	> 100 µM (inactive)	26 µM (inactive)	23.3 µM (inactive)	22.2 µM (inactive)	54.1 µM (inactive)	33.9 µM (inactive)	21.4 µM (inactive)	32.1 µM (inactive)	29.7 µM (inactive)	32.7 µM (inactive)	36.8 µM (inactive)	45.3 µM (inactive)	23.8 µM (inactive)	24.1 µM (inactive)	27.7 µM (inactive)	20.3 µM (inactive)	27.3 µM (inactive)	70.1 µM (inactive)	GI50 (NCI-H460): 97.7 µM (inactive); GI50 (MCF7): 39 µM (inactive); GI50 (HL-60): 26.9 µM (inactive); GI50 (SK-OV-3): > 100 µM (inactive); GI50 (SK-MEL-2): 29.4 µM (inactive); GI50 (Hs-578T): 27.5 µM (inactive); GI50 (MOLT-4): 21.9 µM (inactive); GI50 (T47D): 40.7 µM (inactive); GI50 (HCC 2998): 30.7 µM (inactive)
